From patent US9216106B2, “Device and method for the delivery of drugs for the treatment of posterior segment disease” (DIRECTCONTACT LLC, priority 2003, dated 2015)

What was measured:
[1] = Release of drug from hydrogel lens in contact with the cornea; type: in vivo; conditions: after 2 hours of contact with the cornea; lens with about 700 ng beclomethasone or 450 ng prednisolone
Description: In some embodiments, such as with classes of corticosteroids, a single hydrogel contact lens may be loaded with about […] of active compound. For instance, experiments have shown that an effective concentration of beclomethasone can be delivered to the posterior segment by treating with a lens that includes about 700 ng of the compound. […] In each case, about 95% of the drug exited the lens after 2 hours of contact with the cornea. It is believed that the consistent pore size of the hydrogels provides for a consistent delivery rate of a variety of compounds.

[2] = rabbit, in vivo
Description: A series of experiments were designed to determine the efficacy of delivery to the posterior segment from a hydrogel positioned on the cornea.
In the first experiment, rabbits were treated by placing hydrogel lenses on the corneas of the animals for a period of 3 hours. Each lens was infused with about 450 ng of prednisolone incorporated therein. The lenses were placed onto the eyes of anesthetized animals (closed eye period) for the three hour period after which time the lenses were removed. The procedure was repeated about every other day or every three days until 5 applications had been completed.
After completion of the five applications, each eye of the animal was analyzed for prednisolone concentration using LC/MS/MS. The portion of the posterior segment that was analyzed included macula, retina, surrounding muscle, nerve and circulatory, including connective tissues and cells. Sample size typically was about 800 mg. […] The limit of quantification for prednisolone was 0.5 ng/mL and for prednisone was 0.05 ng/mL.

drug exited the lens [1] | average concentration in the posterior segment relative to the amount provided in the hydrogel lenses [2] | SMILES
about 95% |  | C[C@H]1C[C@H]2[C@@H]3CCC4=CC(=O)C=C[C@]4(C)[C@@]3(Cl)[C@@H](O)C[C@]2(C)[C@@]1(O)C(=O)CO [Beclomethasone, beclomethasone]
about 95% | greater than 10% | C[C@]12C=CC(=O)C=C1CC[C@@H]1[C@@H]2[C@@H](O)C[C@@]2(C)[C@H]1CC[C@]2(O)C(=O)CO [Prednisolone, prednisolone]
